From patent US20240398784A1, “C-LINKED ISOQUINOLINE AMIDES AS LRRK2 INHIBITORS, PHARMACEUTICAL COMPOSITIONS, AND USES THEREOF” (Merck Sharp & Dohme LLC, priority 2021, published 2024)

Target: LRRK2 G2019S (Homo sapiens, UniProt Q5S007, G2019S)
Assay: LRRK2 G2019S Km ATP LanthaScreen assay
Type: biochemical
Conditions: read-out: LRRK2 pIC50 (converted)

LRRK2 G2019S, sequence (Q5S007 whole entry G2019S): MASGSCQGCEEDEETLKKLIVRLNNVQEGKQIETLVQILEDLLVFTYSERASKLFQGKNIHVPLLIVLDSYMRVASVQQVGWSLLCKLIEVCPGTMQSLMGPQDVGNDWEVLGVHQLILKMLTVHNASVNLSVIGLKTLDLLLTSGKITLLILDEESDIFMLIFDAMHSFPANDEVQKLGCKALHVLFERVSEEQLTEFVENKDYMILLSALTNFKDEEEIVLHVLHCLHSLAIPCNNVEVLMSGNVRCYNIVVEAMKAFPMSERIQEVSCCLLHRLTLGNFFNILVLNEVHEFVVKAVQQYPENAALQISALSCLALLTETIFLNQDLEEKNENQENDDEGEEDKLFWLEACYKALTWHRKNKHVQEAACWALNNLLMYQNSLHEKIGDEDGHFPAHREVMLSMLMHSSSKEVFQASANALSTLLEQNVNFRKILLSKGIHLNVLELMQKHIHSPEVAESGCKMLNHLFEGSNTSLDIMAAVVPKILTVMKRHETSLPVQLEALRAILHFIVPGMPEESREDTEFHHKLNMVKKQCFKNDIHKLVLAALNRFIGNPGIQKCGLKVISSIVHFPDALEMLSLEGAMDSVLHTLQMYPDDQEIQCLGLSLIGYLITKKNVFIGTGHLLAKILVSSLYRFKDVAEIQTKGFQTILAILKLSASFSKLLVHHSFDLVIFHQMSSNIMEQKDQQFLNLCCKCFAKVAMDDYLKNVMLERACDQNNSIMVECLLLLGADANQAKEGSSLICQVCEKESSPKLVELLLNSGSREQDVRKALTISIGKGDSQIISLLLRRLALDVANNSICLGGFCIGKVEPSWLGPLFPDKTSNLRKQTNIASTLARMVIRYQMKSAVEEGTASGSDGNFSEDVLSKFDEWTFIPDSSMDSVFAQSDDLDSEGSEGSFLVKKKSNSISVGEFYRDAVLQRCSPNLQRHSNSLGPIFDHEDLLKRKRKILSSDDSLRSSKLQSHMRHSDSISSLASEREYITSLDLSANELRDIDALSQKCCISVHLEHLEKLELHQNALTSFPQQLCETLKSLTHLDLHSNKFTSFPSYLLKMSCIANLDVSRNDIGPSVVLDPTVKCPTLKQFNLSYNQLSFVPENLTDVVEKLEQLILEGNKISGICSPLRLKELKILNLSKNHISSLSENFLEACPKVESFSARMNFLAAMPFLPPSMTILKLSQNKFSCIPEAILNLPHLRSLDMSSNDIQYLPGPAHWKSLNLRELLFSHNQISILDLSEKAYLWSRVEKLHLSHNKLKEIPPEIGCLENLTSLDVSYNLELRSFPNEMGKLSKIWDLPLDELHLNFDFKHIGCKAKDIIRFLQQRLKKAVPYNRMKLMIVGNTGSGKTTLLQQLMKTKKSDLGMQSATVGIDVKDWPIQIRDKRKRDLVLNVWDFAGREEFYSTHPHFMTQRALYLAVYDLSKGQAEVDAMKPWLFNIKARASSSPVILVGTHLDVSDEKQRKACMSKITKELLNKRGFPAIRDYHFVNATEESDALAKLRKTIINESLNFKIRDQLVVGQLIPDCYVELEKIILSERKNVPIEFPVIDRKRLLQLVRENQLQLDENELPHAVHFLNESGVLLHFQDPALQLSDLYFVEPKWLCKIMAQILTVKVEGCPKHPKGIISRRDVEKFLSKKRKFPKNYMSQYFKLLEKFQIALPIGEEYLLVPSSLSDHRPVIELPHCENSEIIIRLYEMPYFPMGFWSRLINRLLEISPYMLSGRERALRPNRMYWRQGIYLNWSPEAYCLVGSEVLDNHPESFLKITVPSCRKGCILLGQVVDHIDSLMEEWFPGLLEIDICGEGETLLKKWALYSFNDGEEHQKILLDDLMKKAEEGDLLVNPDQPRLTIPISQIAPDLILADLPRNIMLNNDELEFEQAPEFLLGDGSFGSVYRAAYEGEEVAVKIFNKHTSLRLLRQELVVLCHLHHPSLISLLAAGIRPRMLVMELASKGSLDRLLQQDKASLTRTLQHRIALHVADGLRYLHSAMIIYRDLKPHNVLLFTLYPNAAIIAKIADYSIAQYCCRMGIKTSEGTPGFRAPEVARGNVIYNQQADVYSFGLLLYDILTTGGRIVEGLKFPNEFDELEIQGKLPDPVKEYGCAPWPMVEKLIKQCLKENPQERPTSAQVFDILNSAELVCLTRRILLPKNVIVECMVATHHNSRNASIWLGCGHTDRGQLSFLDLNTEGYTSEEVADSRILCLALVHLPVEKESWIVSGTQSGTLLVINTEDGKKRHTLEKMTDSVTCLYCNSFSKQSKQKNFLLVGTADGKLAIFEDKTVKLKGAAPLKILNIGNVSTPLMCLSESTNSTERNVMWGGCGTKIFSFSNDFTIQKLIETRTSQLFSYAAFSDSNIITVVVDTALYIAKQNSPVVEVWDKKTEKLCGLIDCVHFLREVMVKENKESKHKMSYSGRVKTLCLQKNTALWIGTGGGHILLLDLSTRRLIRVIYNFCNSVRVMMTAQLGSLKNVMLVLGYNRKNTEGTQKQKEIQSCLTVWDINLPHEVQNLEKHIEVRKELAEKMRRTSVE

SMILES	IC50 [nM]
CC1CC(C(=O)Nc2cc3cc(C4CCN(C5(C)COC5)CC4)c(Cl)cc3cn2)C1 (racemic) [Ex-1.16, Rac-N-(7-chloro-6-(1-(3-methyloxetan-3-yl)piperidin-4-yl)isoquinolin-3-yl)-3-methylcyclobutane-1-carboxamide]	5.5
CCC1C(C(=O)Nc2cc3cc(C4CCN(C5(C)COCC5O)CC4)c(Cl)cc3cn2)C1c1ccccn1 (single isomer, unassigned) [Ex-4.56, N-(7-chloro-6-(1-(4-hydroxy-3-methyltetrahydrofuran-3-yl)piperidin-4-yl)isoquinolin-3-yl)-2-ethyl-3-(pyridin-2-yl)cyclopropane-1-carboxamide]	18.2
CC(C(=O)Nc1cc2cc(C3(C#N)CC34CC4)ccc2cn1)c1cnn(C)c1 (stereo not drawn) [Ex-2.110]	0.575
CC1(N2CCC(c3cc4cc(NC(=O)C5CC56CCOCC6)ncc4cc3Cl)C(F)C2)COCC1O (single isomer, unassigned) [Ex-14.4, N-(7-chloro-6-(3-fluoro-1-(4-hydroxy-3-methyltetrahydrofuran-3-yl)piperidin-4-yl)isoquinolin-3-yl)-6-oxaspiro[2.5]octane-1-carboxamide]	0.186
O=C(Nc1cc2cc(C3CCN(C4COC4)CC3)c(Cl)cc2cn1)C1CCC1 [Ex-7.4, N-(7-chloro-6-(1-(oxetan-3-yl)piperidin-4-yl)isoquinolin-3-yl)cyclobutanecarboxamide]	5.89
CC(C)(O)c1cccc(CC(=O)Nc2cc3cc(C4(C#N)CC45CC5)ccc3cn2)c1 (single isomer, unassigned) [Ex-1.45, (R or S)-N-(6-(1-cyanospiro[2.2]pentan-1-yl)isoquinolin-3-yl)-2-(3-(2-hydroxypropan-2-yl)phenyl)acetamide]	12.9
CCC1C(C(=O)Nc2cc3cc(C4CCN(C5(C)COCC5F)CC4)c(Cl)cc3cn2)C1c1cnn(C)c1 (single isomer, unassigned) [Ex-1.34, (1R,2R,3R or 1R,2S,3R or 1S,2R,3S, or 1S,2S,3S)-N-(7-chloro-6-(1-((3R,4R or 3S,4S)-4-fluoro-3-methyltetrahydrofuran-3-yl)piperidin-4-yl)isoquinolin-3-yl)-2-ethyl-3-(1-methyl-1H-pyrazol-4-yl)cyclopropane-1-carboxamide]	0.0813
Cc1cc2cnc(NC(=O)C3CC34CCOC4)cc2cc1C1CCN(C2(C)COCC2F)CC1 (single isomer, unassigned) [Ex-15.14, N-(6-(1-(4-fluoro-3-methyltetrahydrofuran-3-yl)piperidin-4-yl)-7-methylisoquinolin-3-yl)-5-oxaspiro[2.4]heptane-1-carboxamide]	3.72

Results, then the compound that gave them:

IC50 [nM]	SMILES
28.8	Cc1cc2cnc(NC(=O)C3CC3c3cnn(C)c3)cc2cc1C1CC12CC2 (single isomer, unassigned) [Ex-16.4, 2-(1-methyl-1H-pyrazol-4-yl)-N-(7-methyl-6-(spiro[2.2]pentan-1-yl)isoquinolin-3-yl)cyclopropane-1-carboxamide]
0.0813	Cc1cc2cnc(NC(=O)C3CC3c3ccccn3)cc2cc1C1CCN(C2(C)CCOC2)CC1 (single isomer, unassigned) [Ex-16.10, N-(7-methyl-6-(1-(3-methyltetrahydrofuran-3-yl)piperidin-4-yl)isoquinolin-3-yl)-2-(pyridin-2-yl)cyclopropane-1-carboxamide]
3.09	Cn1cc(C(=O)Nc2cc3cc(C4(C#N)CC45CC5)ccc3cn2)cn1 (single isomer, unassigned) [Ex-18.16, (R or S)-N-(6-(1-cyanospiro[2.2]pentan-1-yl)isoquinolin-3-yl)-1-methyl-1H-pyrazole-4-carboxamide]
0.0813	C[C@@]1(N2CC[C@@H](c3cc4cc(NC(=O)[C@H]5CC56CC6)ncc4cc3Cl)[C@H](F)C2)COC[C@@H]1O [Ex-23.1, (S)-N-(7-chloro-6-((3S,4S)-3-fluoro-1-((3R,4R)-4-hydroxy-3-methyltetrahydrofuran-3-yl)piperidin-4-yl)isoquinolin-3-yl)spiro[2.2]pentane-1-carboxamide]
